Measurements taken from ChEMBL document CHEMBL1134196, “Oxo-piperazine derivatives of N-arylpiperazinones as inhibitors of farnesyltransferase” (Bioorg Med Chem Lett, 2001).

Key:
[1] = tested on: Rat1; assay: Inhibition of anchorage-dependent proliferation of RAT1 v-Ha-ras-transformed cells on poly(HEMA); assay type: functional, cell-based; conditions: Rattus norvegicus
[2] = Pharmacokinetic data in dogs at dose of 1 mg/kg perorally, and the area under curve (AUC) was reported.; assay type: ADME, organism-based, Canis lupus familiaris; parameters: dose 1 mg/kg, route oral; conditions: dog, in vivo, po
[3] = tested on: Rat1; assay: Inhibition of RAT1 v-Ha-ras-transformed cell growth in soft agar; assay type: functional; conditions: Rattus norvegicus
[4] = Half life value of the compound; assay type: ADME; conditions: rat
[5] = Partition coefficient (logP); assay type: physicochemical; conditions: octanol/water
[6] = species: Rattus norvegicus; assay: Concentration at which 80% cultured cells remain viable assessed by MTT staining; assay type: functional
[7] = Maximal plasma concentration required for pharmacokinetic data in dogs at dose of 1 mg/kg perorally; assay type: ADME, organism-based, Canis lupus familiaris; parameters: dose 1 mg/kg, route oral; conditions: dog, po
[8] = molecular target: Protein farnesyltransferase (Homo sapiens, UniProt P49354+P49356); assay: Inhibition of [3H]FPP incorporation into recombinant Ras-CVIM by human farnesyl transferase; assay type: protein-complex assay
[9] = molecular target: Geranylgeranyl transferase type I (Homo sapiens, UniProt P49354+P53609); assay: Inhibition of human geranylgeranyltransferase-1; assay type: protein-complex assay

| AUC [2] | half-life [4] | logP [5] | Cmax [7] | IC50 [8] | IC50 [9] | Structure (SMILES) | IC50 [1] | IC90 [3] | IC20 [6] |
| --- | --- | --- | --- | --- | --- | --- | --- | --- | --- |
|  |  | > 3.4 |  | 250 µM |  | N#Cc1ccc(Cn2cncc2CN2CCN(c3cccc(Cl)c3)CC2)cc1 |  | 1 µM | 25 µM |
| 8.58 µM·h | 72 min | 2.51 | 3140 nM | 100 µM |  | N#Cc1ccc(Cn2cncc2CN2CCN(c3cccc(Cl)c3)CC2=O)cc1 |  | 1 µM | > 100 µM |
| 4.43 µM·h | 60 min | 1.11 | 2290 nM | 20 µM |  | Cc1cccc(N2CCN(Cc3cncn3Cc3ccc(C#N)cc3)C(=O)C2=O)c1C |  | > 1 µM | 10 µM |
|  |  | 2.79 |  |  |  | N#Cc1ccc(Cn2cncc2C(=O)N2CCN(c3cccc(Cl)c3)CC2)cc1 |  | 0.1 µM | > 100 µM |
|  |  | 1.32 |  | 5 µM | 8.7 µM | N#Cc1ccc(Cn2cncc2CN2CCN(c3ccccc3)C(=O)C2)cc1 |  |  |  |

The remaining lines, values behind:

| Structure (SMILES) | AUC [2] | half-life [4] | logP [5] | Cmax [7] | IC50 [8] | IC50 [9] | IC50 [1] | IC90 [3] | IC20 [6] |
| --- | --- | --- | --- | --- | --- | --- | --- | --- | --- |
| CCCC[C@H]1CN(c2cccc(C)c2C)C(=O)CN1Cc1cncn1Cc1ccc(C#N)cc1 | 0.15 µM·h | 36 min | > 3.7 | 140 nM |  |  | 28 µM | 1 µM | 50 µM |
| N#Cc1ccc(Cn2cncc2C(=O)N2CCN(c3cccc(Cl)c3)C(=O)C2)cc1 |  |  |  |  | 33 µM |  |  | 1 µM | > 100 µM |
| Cc1cccc(N2CCN(Cc3cncn3Cc3ccc(C#N)cc3)CC2=O)c1C | 1.4 µM·h | 30 min | 2 | 1060 nM | 11 µM |  | 83 µM | 1 µM | 10 µM |
| N#Cc1ccc(Cn2cncc2CN2CCN(c3cccc(Cl)c3)C(=O)C2=O)cc1 | 12.5 µM·h | 132 min | 1.24 | 3110 nM | 11 µM |  |  | 1 µM | > 100 µM |
| CCCC[C@H]1CN(c2cccc(C)c2C)CC(=O)N1Cc1cncn1Cc1ccc(C#N)cc1 | 3.46 µM·h | 138 min | > 3.5 | 960 nM | 1.3 µM |  | 2.51 µM | 10 µM | 100 µM |
| N#Cc1ccc(Cn2cncc2CN2CCN(c3ccccc3)C(=O)C2=O)cc1 |  |  | 0.46 |  | 16 µM | > 20 µM |  |  |  |
| CCCC[C@H]1CN(c2cccc(C)c2C)C(=O)C(=O)N1Cc1cncn1Cc1ccc(C#N)cc1 | 4.25 µM·h | 54 min | 3.3 | 1950 nM | 3 µM |  | 15 µM | 1 µM | 10 µM |
| N#Cc1ccc(Cn2cncc2CN2CC(=O)N(c3ccccc3)CC2=O)cc1 |  |  | 0.55 |  | 950 µM |  |  |  |  |
| N#Cc1ccc(Cn2cncc2CN2CCN(c3cccc(Cl)c3)C(=O)C2)cc1 [L-778123 FREE BASE] | 5.3 µM·h | 47.4 min | 2.11 | 2980 nM |  |  |  | 0.1 µM | > 100 µM |
